We go through 29 compounds from US10906915B2, “Substituted pyrazoloazepin-4-ones and their use as phosphodiesterase inhibitors” (LEO Pharma A/S, priority 2016, dated 2021).

Bounds are passed on as bounds.

Chain of human PDE4D catalytic domain (Q08499 380-740 limits assumed): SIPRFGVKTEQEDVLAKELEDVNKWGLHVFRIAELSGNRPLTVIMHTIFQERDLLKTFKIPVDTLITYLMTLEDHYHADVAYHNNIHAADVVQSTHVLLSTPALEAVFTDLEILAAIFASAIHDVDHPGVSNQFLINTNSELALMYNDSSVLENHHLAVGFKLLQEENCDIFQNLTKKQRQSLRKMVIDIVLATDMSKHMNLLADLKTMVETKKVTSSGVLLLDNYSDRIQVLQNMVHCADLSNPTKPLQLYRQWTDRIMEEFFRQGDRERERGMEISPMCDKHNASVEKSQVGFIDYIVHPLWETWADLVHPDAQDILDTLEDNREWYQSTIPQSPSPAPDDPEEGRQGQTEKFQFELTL

This assay concerns the target human PDE4D catalytic domain (UniProt no. Q08499) (Homo sapiens (Human), UniProt Q08499). Kind of assay: PDE4 assay (TR-FRET, FAM-cAMP cleavage). As to conditions: read-out: PDE4 IC50 range. It is filed as biochemical. Summed up:
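Read-out is time-resolved FRET from Tb donor to FAM-AMP captured on trivalent-metal nanoparticles added to stop the reaction. Substrate was a mix of plain and FAM-labelled cAMP, cleaved by human PDE4D catalytic domain ([…]) with titrated compound; IC50 ranges (nM) versus controls.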
Background: In TR-FRET formats the signal depends on donor and acceptor labels being close together.
`CCc1nn(CC(C)(C)COC(=O)c2cccc(C(=O)N3CCCC3)c2)c2c1C(=O)NCC1(CCOCC1)C2` [Example 344, [3-(3-ethyl-4-oxo-Spiro[6,8-dihydro-5H-pyrazolo[4,3-c]azepine-7,4′-tetrahydropyran]-1-yl)-2,2-dimethyl-propyl] 3-(pyrrolidine-1-carbonyl)benzoate]: the IC50 is less than 100 nM.

On to `CCc1nn(CC(C)(C)COC(=O)c2cccc(C(=O)N3CCCCC3)c2)c2c1C(=O)NCC1(CCOCC1)C2` [Example 345], for which the IC50 is less than 100 nM.

Take `CCc1nn(CC(C)(C)COC(=O)c2cccc(C(=O)N3CCNCC3)c2)c2c1C(=O)NCC1(CCOCC1)C2` [Example 346, [3-(3-ethyl-4-oxo-spiro[6,8-dihydro-5H-pyrazolo[4,3-c]azepine-7,4′-tetrahydropyran]-1-yl)-2,2-dimethyl-propyl] 3-(piperazine-1-carbonyl)benzoate]: the concentration for half-maximal inhibition (IC50) is less than 100 nM.

As to `CCc1nn(CC(C)(C)COC(=O)c2cccc(C(=O)N3CCOCC3)c2)c2c1C(=O)NCC1(CCOCC1)C2` [Example 347, [3-(3-ethyl-4-oxo-spiro[6,8-dihydro-5H-pyrazolo[4,3-c]azepine-7,4′-tetrahydropyran]-1-yl)-2,2-dimethyl-propyl] 3-(morpholine-4-carbonyl)benzoate], the IC50 was less than 100 nM.

As to `CCc1nn(CC(C)(C)COC(=O)c2cccc(C(=O)N3CCN(C)CC3)c2)c2c1C(=O)NCC1(CCOCC1)C2` [Example 348, [3-(3-ethyl-4-oxo-spiro[6,8-dihydro-5H-pyrazolo[4,3-c]azepine-7,4′-tetrahydropyran]-1-yl)-2,2-dimethyl-propyl] 3-(4-methylpiperazine-1-carbonyl)benzoate], the IC50 is less than 100 nM.

As to `CCc1nn(CC(C)(C)COC(=O)c2cccc(C(=O)N3CCN(C(C)=O)CC3)c2)c2c1C(=O)NCC1(CCOCC1)C2` [Example 349, [3-(3-ethyl-4-oxo-spiro[6,8-dihydro-5H-pyrazolo[4,3-c]azepine-7,4′-tetrahydropyran]-1-yl)-2,2-dimethyl-propyl] 3-(4-acetylpiperazine-1-carbonyl)benzoate], the IC50 was less than 100 nM.

As to `CCc1nn(CC2(COC(=O)c3ccc(C)cc3)CC2)c2c1C(=O)NCC1(CCOCC1)C2` [Example 351, [1-[(3-ethyl-4-oxo-spiro[6,8-dihydro-5H-pyrazolo[4,3-c]azepine-7,4′-tetrahydropyran]-1-yl)methyl]cyclopropyl]methyl 4-methylbenzoate], the IC50 was less than 100 nM.

As for `CCc1nn(CC2(COC(=O)c3cccc(F)c3)CC2)c2c1C(=O)NCC1(CCOCC1)C2` [Example 352, [1-[(3-ethyl-4-oxo-spiro[6,8-dihydro-5H-pyrazolo[4,3-c]azepine-7,4′-tetrahydropyran]-1-yl)methyl]cyclopropyl]methyl 3-fluorobenzoate], the half-maximal inhibitory concentration (IC50) was less than 100 nM.

With `CCc1nn(CC2(COC(=O)c3cccc(OC)c3)CC2)c2c1C(=O)NCC1(CCOCC1)C2` [Example 354, [1-[(3-ethyl-4-oxo-spiro[6,8-dihydro-5H-pyrazolo[4,3-c]azepine-7,4′-tetrahydropyran]-1-yl)methyl]cyclopropyl]methyl 3-methoxybenzoate], the half-inhibitory concentration (IC50) is less than 100 nM.

`CCc1nn(CC2(COC(=O)c3ccc(Cl)cc3)CC2)c2c1C(=O)NCC1(CCOCC1)C2` [Example 355, [1-[(3-ethyl-4-oxo-spiro[6,8 dihydro-5H-pyrazolo[4,3-c]azepine-7,4′-letrahydropyran]-1-yl)methyl]cyclopropyl]methyl 4-chlorobenzoate]: the IC50 is less than 100 nM.

In the case of `CCc1nn(CC2(COC(=O)c3ccccc3)COC2)c2c1C(=O)NCC1(CCOCC1)C2` [Example 356, [3-[(3-ethyl-4-oxo-spiro[6,8-dihydro-5H-pyrazolo[4,3-c]azepine-7,4′-tetrahydropyran]-1-yl)methyl]oxetan-3-yl]methyl benzoate], the half-maximal inhibitory concentration (IC50) is less than 100 nM.

On to `CCc1nn(CC2(COC(=O)c3ccc(C)cc3)COC2)c2c1C(=O)NCC1(CCOCC1)C2` [Example 357, [3-[(3-ethyl-4-oxo-spiro[6,8-dihydro-5H-pyrazolo[4,3-c]azepine-7,4′-tetrahydropyran]-1-yl)methyl]oxetan-3-yl]methyl 4-methylbenzoate], for which the IC50 was less than 100 nM.

For the compound `CCc1nn(CC2(COC(=O)c3cccc(F)c3)COC2)c2c1C(=O)NCC1(CCOCC1)C2` [Example 358, [3-[(3-ethyl-4-oxo-spiro[6,8-dihydro-5H-pyrazolo[4,3-c]azepine-7,4′-tetrahydropyran]-1-yl)methyl]oxetan-3-yl]methyl 3-fluorobenzoate], the half-inhibitory concentration (IC50) is less than 100 nM.

In the case of `CCc1nn(CC2(COC(=O)c3ccc(F)cc3)COC2)c2c1C(=O)NCC1(CCOCC1)C2` [Example 359, [3-[(3-ethyl-4-oxo-spiro[6,8-dihydro-5H-pyrazolo[4,3-c]azepine-7,4′-tetrahydropyran]-1-yl)methyl]oxetan-3-yl]methyl 4-fluorobenzoate], the concentration for half-maximal inhibition (IC50) was less than 100 nM.

With `CCc1nn(CC2(COC(=O)c3cccc(OC)c3)COC2)c2c1C(=O)NCC1(CCOCC1)C2` [Example 360, [3-[(3-ethyl-4-oxo-spiro[6,8-dihydro-5H-pyrazolo[4,3-c]azepine-7,4′-tetrahydropyran]-1-yl)methyl]oxetan-3-yl]methyl 3-methoxybenzoate], the half-inhibitory concentration (IC50) was less than 100 nM.

`CCc1nn(CC2(COC(=O)c3ccc(Cl)cc3)COC2)c2c1C(=O)NCC1(CCOCC1)C2` [Example 361, [3-[(3-ethyl-4-oxo-spiro[6,8-dihydro-5H-pyrazolo[4,3-c]azepine-7,4′-tetrahydropyran]-1-yl)methyl]oxetan-3-yl]methyl 4-chlorobenzoate]: the IC50 is less than 100 nM.

For `CCc1nn(C(C)CCOC(=O)c2ccccc2)c2c1C(=O)NCC1(CCOCC1)C2` (centres unmarked) [Example 362, 3-(3-ethyl-4-oxo-spiro[6,8-dihydro-5H-pyrazolo[4,3-c]azepine-7,4′-tetrahydropyran]-1-yl)butyl benzoate], the IC50 is less than 100 nM.

In the case of `CCc1nn(CCCCOC(=O)c2ccccc2)c2c1C(=O)NCC1(CCOCC1)C2` [Example 363, 4-(3-ethyl-4-oxo-spiro[6,8-dihydro-5H-pyrazolo[4,3-c]azepine-7,4′-tetrahydropyran]-1-yl)butyl benzoate], the IC50 is less than 100 nM.

In the case of `CCc1nn(CCCCOC(=O)c2cccc(C)c2)c2c1C(=O)NCC1(CCOCC1)C2` [Example 364, 4-(3-ethyl-4-oxo-spiro[6,8-dihydro-5H-pyrazolo[4,3-c]azepine-7,4′-tetrahydropyran]-1-yl)butyl 3-methylbenzoate], the concentration for half-maximal inhibition (IC50) is less than 100 nM.

Take `CCc1nn(CCCCOC(=O)c2ccc(C)cc2)c2c1C(=O)NCC1(CCOCC1)C2` [Example 365, 4-(3-ethyl-4-oxo-spiro[6,8-dihydro-5H-pyrazolo[4,3-c]azepine-7,4′-tetrahydropyran]-1-yl)butyl 4-methylbenzoate]: the half-inhibitory concentration (IC50) is less than 100 nM.

Regarding `CCc1nn(CCCCOC(=O)c2ccc(F)cc2)c2c1C(=O)NCC1(CCOCC1)C2` [Example 366, 4-(3-ethyl-4-oxo-spiro[6,8-dihydro-5H-pyrazolo[4,3-c]azepine-7,4′-tetrahydropyran]-1-yl)butyl 4-fluorobenzoate], the half-maximal inhibitory concentration (IC50) is less than 100 nM.

`CCc1nn(CCCCOC(=O)c2ccc(C(C)=O)cc2)c2c1C(=O)NCC1(CCOCC1)C2` [Example 368, 4-(3-ethyl-4-oxo-spiro[6,8-dihydro-5H-pyrazolo[4,3-c]azepine-7,4′-tetrahydropyran]-1-yl)butyl 4-acetylbenzoate]: the IC50 lay within 100 to 500 nM.

In the case of `CCc1nn(CCCCOC(=O)c2cccc(S(C)(=O)=O)c2)c2c1C(=O)NCC1(CCOCC1)C2` [Example 369, 4-(3-ethyl-4-oxo-spiro[6,8-dihydro-5H-pyrazolo[4,3-c]azepine-7,4′-tetrahydropyran]-1-yl)butyl 3-methylsulfonylbenzoate], the concentration for half-maximal inhibition (IC50) fell in the range of 100 to 500 nM.

For the compound `CCc1nn(CCCCOC(=O)c2ccc(S(C)(=O)=O)cc2)c2c1C(=O)NCC1(CCOCC1)C2` [Example 370, 4-(3-ethyl-4-oxo-spiro[6,8-dihydro-5H-pyrazolo[4,3-c]azepine-7,4′-tetrahydropyran]-1-yl)butyl 4-methylsulfonylbenzoate], the IC50 was 100 to 500 nM.

For the compound `CCc1nn(CCCCOC(=O)c2ccc(S(=O)(=O)CC)cc2)c2c1C(=O)NCC1(CCOCC1)C2` [Example 371, 4-(3-ethyl-4-oxo-spiro[6,8-dihydro-5H-pyrazolo[4,3-c]azepine-7,4′-tetrahydropyran]-1-yl)butyl 4-ethylsulfonylbenzoate], the IC50 lay in the range of 100 to 500 nM.

Turning to `CCc1nn(CCCCOC(=O)c2cccc(S(=O)(=O)NC)c2)c2c1C(=O)NCC1(CCOCC1)C2` [Example 372, 4-(3-ethyl-4-oxo-spiro[6,8-dihydro-5H-pyrazolo[4,3-c]azepine-7,4′-tetrahydropyran]-1-yl)butyl 3-(methylsulfamoyl)benzoate], the IC50 is less than 100 nM.

`CCc1nn(CCCCOC(=O)c2ccc(S(=O)(=O)NC)cc2)c2c1C(=O)NCC1(CCOCC1)C2` [Example 373, 4-(3-ethyl-4-oxo-spiro[6,8-dihydro-5H-pyrazolo[4,3-c]azepine-7,4′-tetrahydropyran]-1-yl)butyl 4-(methylsulfamoyl)benzoate]: the IC50 was in the range of 100 to 500 nM.

Consider `CCc1nn(CCCCOC(=O)c2ccc(S(=O)(=O)N(C)C)cc2)c2c1C(=O)NCC1(CCOCC1)C2` [Example 375, 4-(3-ethyl-4-oxo-spiro[6,8-dihydro-5H-pyrazolo[4,3-c]azepine-7,4′-tetrahydropyran]-1-yl)butyl 4-(dimethylsulfamoyl)benzoate], for which the half-inhibitory concentration (IC50) lay within 100 to 500 nM.

Take `CCc1nn(CCCCOC(=O)c2ccc(S(=O)(=O)C3CCCC3)cc2)c2c1C(=O)NCC1(CCOCC1)C2` [Example 376, 4-(3-ethyl-4-oxo-spiro[6,8-dihydro-5H-pyrazolo[4,3-c]azepine-7,4′-tetrahydropyran]-1-yl)butyl 4-cyclopentylsulfonylbenzoate]: the IC50 was 100 to 500 nM.

For orientation: IC50 means the concentration that inhibits the measured activity by half.
